The values that follow come from US9000153B2, “Imidazo[4,5-c]quinolines as DNA-PK inhibitors” (Merck Patent GmbH, priority 2010, dated 2015).

pIC50: −log10 of the molar value. Like-named read-outs stand apart in the source and are kept apart here.

For test [1], the target named is T1, DNA-PK (Homo sapiens (Human), UniProt P78527). Kind of test: DNA-PK/biochemical assay (FlashPlate kinase assay). Conditions: 5 μM ATP, 90 min, room temperature. The method, then: The kinase assay was carried out in streptavidin-coated […] microtitre FlashPlates®. To this end, 1.5 μg of the DNA-PK/protein complex and 100 ng of biotinylated substrate, such as, for example, PESQEAFADLWKK biotin-NH2 (“biotin-DNA-PK peptide”), in a total volume of 36.5 μl (34.25 mM HEPES/KOH, 7.85 mM Tris-HCl, 68.5 mM KCl, 5 μM ATP, 6.85 mM MgCl2, 0.5 mM EDTA, 0.14 mM EGTA, 0.69 mM DTT, pH 7.4), were incubated at room temperature for 90 min with 500 ng of DNA from calf thymus, 0.1 μCi of 33P-ATP and 1.8% of DMSO per well with or without the test compound. The reaction was stopped using 50 μl/well of 200 mM EDTA. After incubation for a further 30 min at room temperature, the liquid was removed. Each well was washed three times with 100 μl of 0.9% sodium chloride solution. A non-specific reaction (blank value) was determined using 10 μM of a proprietary kinase inhibitor. The radioactivity measurement was carried out by means of a TopCount. IC50 values were calculated in RS1 (Kashishian et al. (2003) Molecular Cancer Therapeutics 1257).

The subject of test [2] is kinases of the PI3K isoenzyme family. Particulars: cited from earlier work.
Another test concerns mammal cells. Conditions: in cellular terms; cited from earlier work.
Test [3] concerns the target T1, DNA-PK. Particulars: cited from earlier work.

In general, pIC50 refers to the IC50 on a negative log10 scale, so that one unit is a factor of ten. `COc1cc2ncc3c(c2cc1OC(C(N)=O)c1ccc(F)cc1)n(-c1c(F)cc(C#N)cc1F)c(=O)n3C` (stereo not drawn) [Compound 25, 2-[1-(4-Cyano-2,6-difluoro-phenyl)-7-methoxy-3-methyl-2-oxo-2,3-dihydro-1H-imidazo-[4,5-c]quinolin-8-yloxy]-2-(4-fluorophenyl)acetamide] had a pIC50 at DNA-PK [1] of more than 7.00.

Molecule `COc1cc2ncc3c(c2cc1OCc1ccsc1)n(-c1c(F)cc(C#N)cc1F)c(=O)n3C` [Compound 26, 3,5-Difluoro-4-(7-methoxy-3-methyl-2-oxo-8-(thiophen-3-ylmethoxy)-2,3-dihydroimidazo-[4,5-c]quinolin-1-yl)benzonitrile] had a pIC50 at DNA-PK [1] of more than 7.00.

At DNA-PK [1], `COc1cc2ncc3c(c2cc1OCc1ccc(F)cc1)n(-c1c(F)cc(C#N)cc1F)c(=O)n3C` [Compound 27, 3,5-Difluoro-4-[8-(4-fluoro-benzyloxy)-7-methoxy-3-methyl-2-oxo-2,3-dihydroimidazo-[4,5-c]quinolin-1-yl]benzonitrile] gave a pIC50 of more than 7.00.

As for `COc1cc2ncc3c(c2cc1OCc1cccs1)n(-c1c(F)cc(C#N)cc1F)c(=O)n3C` [Compound 28, 3,5-Difluoro-4-(7-methoxy-3-methyl-2-oxo-8-(thiophen-2-ylmethoxy)-2,3-dihydroimidazo-[4,5-c]quinolin-1-yl)benzonitrile], at DNA-PK [1], the pIC50 is more than 7.00.

`COc1cc2ncc3c(c2cc1OCc1cncs1)n(-c1ccc(C#N)cc1F)c(=O)n3C` [Compound 30, 3-Fluoro-4-[7-methoxy-3-methyl-2-oxo-8-(thiazol-5-ylmethoxy)-2,3-dihydroimidazo[4,5-c]-quinolin-1-yl)benzonitrile]: the pIC50 at DNA-PK [1] is more than 7.00.

`COc1cc2ncc3c(c2cc1OC(CN)c1cccs1)n(-c1ccc(C#N)cc1F)c(=O)n3C` (stereo not drawn) [Compound 31, 4-[8-(2-Amino-1-thiophen-2-ylethoxy)-7-methoxy-3-methyl-2-oxo-2,3-dihydroimidazo-[4,5-c]quinolin-1-yl]-3-fluorobenzonitrile] gave a pIC50 against DNA-PK [1] of 6.30 to 7.00.

The molecule `COc1cc2ncc3c(c2cc1OC(CN)c1ccc(F)cc1)n(-c1ccc(C#N)cc1F)c(=O)n3C` (stereo not drawn) [Compound 32, 4-{8-[2-Amino-1-(4-fluorophenyl)ethoxy]-7-methoxy-3-methyl-2-oxo-2,3-dihydro-imidazo[4,5-c]quinolin-1-yl}-3-fluorobenzonitrile] showed a pIC50 against DNA-PK [1] of 6.00 to 6.30.

At DNA-PK [1], `COc1cc2ncc3c(c2cc1-c1cccnc1)n(-c1ccc(C#N)cc1F)c(=O)n3C` [Compound 33, 3-Fluoro-4-(7-methoxy-3-methyl-2-oxo-8-pyridin-3-yl-2,3-dihydro-imidazo[4,5-c]quinolin-1-yl)-benzonitrile] had a pIC50 of more than 7.00.

Molecule `COc1ccc(-c2cc3c(cc2OC)ncc2c3n(-c3ccc(C#N)cc3F)c(=O)n2C)cn1` [Compound 34, 3-Fluoro-4-[7-methoxy-8-(6-methoxypyridin-3-yl)-3-methyl-2-oxo-2,3-dihydroimidazo[4,5-c]-quinolin-1-yl)benzonitrile] gave a pIC50 against DNA-PK [1] of more than 7.00.

Molecule `COc1cc2ncc3c(c2cc1-c1cnc2ccccc2c1)n(-c1ccc(C#N)cc1F)c(=O)n3C` [Compound 35, 3-Fluoro-4-(7-methoxy-3-methyl-2-oxo-8-quinolin-3-yl-2,3-dihydroimidazo[4,5-c]quinolin-1-yl)benzonitrile] showed a negative logarithm of the IC50 (pIC50) at DNA-PK [1] of more than 7.00.

`COc1cc2ncc3c(c2cc1-c1cnn(C)c1)n(-c1ccc(C#N)cc1F)c(=O)n3C` [Compound 36, 3-Fluoro-4-[7-methoxy-3-methyl-8-(1-methyl-1H-pyrazol-4-yl)-2-oxo-2,3-dihydroimidazo[4,5-c]-quinolin-1-yl]benzonitrile]: the pIC50 against DNA-PK [1] was more than 7.00.

Molecule `COc1cc2ncc3c(c2cc1-c1cn[nH]c1)n(-c1ccc(C#N)cc1F)c(=O)n3C` [Compound 37, 3-Fluoro-4-[7-methoxy-3-methyl-2-oxo-8-(1H-pyrazol-4-yl)-2,3-dihydroimidazo[4,5-c]quinolin-1-yl)benzonitrile] gave a pIC50 at DNA-PK [1] of more than 7.00.

As for `COc1cc2ncc3c(c2cc1-c1ccnn1C)n(-c1ccc(C#N)cc1F)c(=O)n3C` [Compound 38, 3-Fluoro-4-[7-methoxy-3-methyl-8-(2-methyl-2H-pyrazol-3-yl)-2-oxo-2,3-dihydroimidazo[4,5-c]-quinolin-1-yl)benzonitrile], at DNA-PK [1], the pIC50 was 6.30 to 7.00.

For `COc1cc2ncc3c(c2cc1-c1ccn[nH]1)n(-c1ccc(C#N)cc1F)c(=O)n3C` [Compound 39, 3-Fluoro-4-[7-methoxy-3-methyl-2-oxo-8-(2H-pyrazol-3-yl)-2,3-dihydroimidazo[4,5-c]quinolin-1-yl]benzonitrile], the negative logarithm of the IC50 (pIC50) at DNA-PK [1] is more than 7.00.

The molecule `COc1cc2ncc3c(c2cc1-c1cc(C(F)(F)F)nn1C)n(-c1ccc(C#N)cc1F)c(=O)n3C` [Compound 40, 3-Fluoro-4-[7-methoxy-3-methyl-8-(2-methyl-5-trifluoromethyl-2H-pyrazol-3-yl)-2-oxo-2,3-dihydro-imidazo[4,5-c]quinolin-1-yl]-benzonitrile] gave a pIC50 on DNA-PK [1] of 6.30 to 7.00.

`COc1cc2ncc3c(c2cc1/C=C/c1ccsc1)n(-c1ccc(C#N)cc1F)c(=O)n3C` [Compound 41, 3-Fluoro-4-[7-methoxy-3-methyl-2-oxo-8-((E)-2-thiophen-3-yl-viniyl)-2,3-dihydroimidazo-[4,5-c]quinolin-1-yl]benzonitrile] had a pIC50 on DNA-PK [1] of more than 7.00.

For `COc1cc2ncc3c(c2cc1CCc1ccsc1)n(-c1ccc(C#N)cc1F)c(=O)n3C` [Compound 42, 3-Fluoro-4-[7-methoxy-3-methyl-2-oxo-8-(2-thiophen-3-ylethyl)-2,3-dihydroimidazo[4,5-c]-quinolin-1-yl]benzonitrile], the pIC50 against DNA-PK [1] was 6.30 to 7.00.

With `COc1cc2ncc3c(c2cc1/C=C/c1ccccc1)n(-c1ccc(C#N)cc1F)c(=O)n3C` [Compound 43, 3-Fluoro-4-[7-methoxy-3-methyl-2-oxo-8-((E)-styryl)-2,3-dihydroimidazo[4,5-c]quinolin-1-yl]benzonitrile], the pIC50 against DNA-PK [1] was 6.30 to 7.00.

As for `CCN1CCN(CC(=O)Nc2ccc(-c3cccc4c(=O)cc(N5CCOCC5)oc34)c3sc4ccccc4c23)CC1` [KU-0060648], the “inhibition of PI3K isoenzyme family kinases” value in test [2] was “potently inhibited”.

For the molecule `O=c1cc(N2CCOCC2)oc2c(-c3ccccc3)cccc12` [LY294002], the “increase in sensitivity to ionising irradiation” value in the test with mammal cells is on record as “only a weak increase”.

On to `O=c1cc(N2CCOCC2)oc2c(-c3cccc4c3sc3ccccc34)cccc12` [NU-7441], for which the pIC50 at DNA-PK [3] was 7.70.
